In patent US20240285728A1, “TARGETED PROTEIN DELIVERY TO MAMMALIAN EMBRYOS AND THERAPEUTIC APPLICATIONS USING EXOSOMES” (University of Maryland, Baltimore, priority 2021, published 2024):
Blank lines part the entries; values can stand above or below the compound they belong to.

What was measured:
Survivin = Survivin mRNA and protein expression in normal and high glucose culture; assay type: cell-based; conditions: normal glucose 5 mM / high glucose 25 mM culture
Description: (§1) Cell culture and transfection. The C17.2 mouse neural stem cell line from the European Collection of Cell Culture (Salisbury, UK) and the yolk sac endoderm PYS2 cell line (ATCC® CRL2745™) were maintained in DMEM (5 mM glucose) supplemented with 10% FBS, 100 U/ml penicillin, and […] streptomycin at 37° C. in a humidified atmosphere of 5% CO2. Mouse recombinant FGF2 (#3139-FB; R&D Systems, Minneapolis, MN) was used at a final concentration of 10 ng/ml. Lipofectamine 2000 (Invitrogen, Carlsbad, CA) was used according to the manufacturer's protocol for transfection of siFGF2 and control siRNA (Invitrogen, Carlsbad, CA) into the cells. After seeding for 12 h, cells were transfected with recombinant FGF2 and cultured in 1% FBS for 8 h, after which cells were cultured in 10% FBS and collected after 48 h for analysis.
Real-time PCR (RT-PCR). mRNA was isolated from embryos using the RNeasy Mini kit (Qiagen, Hilden, Germany), and then reversely transcribed using the high-capacity cDNA archive kit (Applied Biosystem, Grand Island, NY). Real time-PCR for Fgf2, Fgfr, Bmp4, Vegfr2, mVegfr1, Calnexin, GRP94, PDIA, BiP, IRE1α, CHOP, Survivin and β-actin were performed using the Maxima SYBR Green/ROX qPCR Master Mix assay (Thermo Fisher Scientific, Waltham, MA) in the Step One Plus system (Applied Biosystem, Grand Island, NY).

Survivin promoter = assay: Luciferase reporter activity driven by the Survivin promoter; assay type: cell-based
Description: as §1

yolk sac cell line = assay: Exosome number and Survivin protein in exosomes of a yolk sac cell line; assay type: cell-based
Description: as §1
(§2) Exosome extraction and labelling. Cells and debris were removed from cell culture media via centrifugation at 2000×g for 30 minutes at 4° C. Supernatants containing the cell-free culture media were transferred to a new tube without disturbing the pellet. Total Exosome Isolation (#4478359, Invitrogen, Carlsbad, CA) at 0.5 volume of the collected supernatants was added to each tube. The cell culture media/reagent mixture was mixed well via vortex and pipetting up and down until it became a homogenous solution, and then was incubated at 4° C. overnight. […]

[1] = system: isolated E8 Flk-1^+ progenitors; assay: Survivin protein in exosomes of isolated E8 Flk-1+ progenitors; assay type: cell-based, mouse; conditions: high glucose
Description: Isolation of Flk-1+ endothelial progenitor cells. Flk-1^+ progenitor cells were isolated from the E8 yolk sac. Yolk sacs were minced in phosphate-buffered saline PBS (Thermo Fisher Scientific, Waltham, MA), digested with 1 mg/ml of collagenase type I (Sigma, St Louis, MO) and incubated on an orbital shaker at 37° C. for 30-45 min. Following the collagenase treatment, cells were washed twice with growth medium (EBM-2, fetal bovine serum (10%), hFGF-basic (0.5 ml), hydrocortisone (0.2 ml), VEGF (0.5 ml), IGF-1 (0.5 ml), ascorbic acid (0.5 ml), hEGF (0.5 ml), GA-100 (0.5 ml)) before being plated. Cells were trypsinized (Lonza, Walkersville, MD) and sorted for Flk-1 with MACS microbeads (Miltenyi Biotec, Bergisch Gladbach, Germany) as per the kit instructions. The Flk-1^+ progenitor cells were collected and cultured in growth medium as mentioned above.
as §2, with “tube.” for “tube. The cell culture media/reagent mixture was mixed well via vortex and pipetting up and down until it became a homogenous solution, and then was incubated at 4° C. overnight.”

[2] = system: Fgf2 promoter in yolk sac endoderm PYS2 cell line; assay: Fgf2 promoter luciferase reporter activity under high glucose; assay type: cell-based; conditions: suppressed by high glucose (25 mM glucose), PYS2 cells
Description: as §1

neuroepithelial cells = conditions: mouse, in vivo
Description: (§3) Mouse models of diabetic embryopathy. The mouse model of diabetic embryopathy was described previously [4,22,36,45,46]. Briefly, ten-week old female mice were intravenously injected daily with 75 mg/kg STZ over two days to induce diabetes. Diabetes was defined as 12 hours fasting blood glucose level of ≥250 mg/dL. Male and female mice were paired at 3:00 PM, and day 0.5 (E0.5) of pregnancy was established by the presence of the vaginal plug at 8:00 AM the next morning. Female mice injected with vehicle served as the nondiabetic controls. On E7.5, E8.5, E9.5 or E10.5 mice were euthanized and conceptuses were dissected out of the uteri for biochemical and molecular analysis.
(§4) Immunoblotting. Immunoblotting was performed as described by Yang at el [4]. Lysis buffer (Cell Signaling Technology, Danvers, MA) containing a protease inhibitor cocktail (Sigma, St Louis, MO) was used to extract protein. Equal amounts of protein and Precision Plus Protein Standards (Bio-Rad, Hercules, CA) were resolved by SDS-PAGE and transferred onto Immunobilon-P membranes (Millipore, Billerica, MA). […] Signals were detected using the SuperSignal West Femto Maximum Sensitivity Substrate kit (Thermo Fisher Scientific, Waltham, MA). […]

[3] = mouse, in vivo
Description: Briefly, ten-week old female mice were intravenously injected daily with 75 mg/kg STZ over two days to induce diabetes. Diabetes was defined as 12 hours fasting blood glucose level of ≥250 mg/dL. Male and female mice were paired at 3:00 PM, and day 0.5 (E0.5) of pregnancy was established by the presence of the vaginal plug at 8:00 AM the next morning. Female mice injected with vehicle served as the nondiabetic controls. On E7.5, E8.5, E9.5 or E10.5 mice were euthanized and conceptuses were dissected out of the uteri for biochemical and molecular analysis. The exosome inhibitor GW4869 (Sigma, St, Louis, MO) was injected daily to nondiabetic pregnant dams from E7.0 to E8.0. NTDs were examined at E10.5.

[4] = system: (p)-PERK, (p)-IRE1α, (p)-eIF2α and CHOP; conditions: mouse, in vivo
Description: as §3, §4

[5] = system: embryos of nondiabetic dams; conditions: mouse, in vivo
Description: Mouse models of diabetic embryopathy. […] Briefly, ten-week old female mice were intravenously injected daily with 75 mg/kg STZ over two days to induce diabetes. Diabetes was defined as 12 hours fasting blood glucose level of ≥250 mg/dL. Male and female mice were paired at 3:00 PM, and day 0.5 (E0.5) of pregnancy was established by the presence of the vaginal plug at 8:00 AM the next morning. Female mice injected with vehicle served as the nondiabetic controls. On E7.5, E8.5, E9.5 or E10.5 mice were euthanized and conceptuses were dissected out of the uteri for biochemical and molecular analysis. The exosome inhibitor GW4869 (Sigma, St, Louis, MO) was injected daily to nondiabetic pregnant dams from E7.0 to E8.0. NTDs were examined at E10.5.
Statistical analyses. Data were presented as means±standard errors (SE). In animal studies, experiments were repeated at least three times, and embryonic samples from each replicate were from different dams. Statistical differences were determined by one-way analysis of variance (ANOVA) using the SigmaPlot 12.5 (SigmaStat, San Jose, CA). In one-way ANOVA analysis, Tukey test was used to estimate the significance of the results (P<0.05). The Chi square test and Fisher Exact test were used to estimate the significance of NTD incidence.

[6] = system: exosome production in the developing embryos; assay: Exosome profile, exosome numbers and CD63 expression in E8.5 embryos after GW4869 injections; assay type: in vivo, mouse
Description: Mouse models of diabetic embryopathy. […] NTDs were examined at E10.5.
Exosome extraction and labelling. Cells and debris were removed from cell culture media via centrifugation at 2000×g for 30 minutes at 4° C. Supernatants containing the cell-free culture media were transferred to a new tube without disturbing the pellet. Total Exosome Isolation (#4478359, Invitrogen, Carlsbad, CA) at 0.5 volume of the collected supernatants was added to each tube. The cell culture media/reagent mixture was mixed well via vortex and pipetting up and down until it became a homogenous solution, and then was incubated at 4° C. overnight. After incubation, the samples were centrifuged at 10,000×g for 1 hour at 4° C. and the supernatants were discarded. Exosomes were contained in the pellet at the bottom of the tube (not visible in most cases). The pellet was re-suspended in 1 ml of 1×PBS, and NanoSight (#NS300, Malvern Panalytical) was used to measure the exosomes. The presence of exosomes was confirmed by Western blot using the exosomal marker CD63 (Santa Cruz Biotechnology, Dallas, TX). Exosomes were suspended in 1 ml Diluent C (Sigma, St Louis, MO) and labeled by incubating with PKH67 fluorescent dye (Sigma, St Louis, MO) for 5 min in the dark at room temperature. […]

Compound: FGF2: recombinant fibroblast growth factor 2, used at 10 ng/ml
Survivin mRNA and protein expression (Survivin): normalized | luciferase reporter activity driven by the Survivin promoter (Survivin promoter): stimulated | Survivin in exosomal cargo (yolk sac cell line): rescued | Survivin expression in exosomes [1]: abolished this suppression

Compound: O=C(O)C(Cc1c[nH]c2ccccc12)N1C(=O)c2ccccc2C1=O (stereo not drawn) [RG108]
Fgf2 promoter-driven luciferase activity [2]: restored

detection in the embryo [3]: reached the embryo | ER stress in neurulation stage embryos [4]: triggered | NTD Embryos [5]: 7 | NTD rate [5]: 7.29%
Compound: O=C(/C=C/c1ccc(/C=C/C(=O)Nc2ccc(C3=NCCN3)cc2)cc1)Nc1ccc(C2=NCCN2)cc1 [GW4869]
neuroepithelial cell apoptosis (neuroepithelial cells): triggered | NTD induction [5]: mimicked the teratogenic effect of maternal diabetes | exosome production in the developing embryos [6]: inhibited
